Earlier results in patent EP1550371A2, “Pesticidal compositions comprising an oxathiin and triazole fungicides” (Tovarystvo z obmegenoyu vidpovidalnistyu "Prezence", priority 2003, dated 2005).

Legend:
[1] = at 25 °C
[2] = system: rats; details: in rats
[3] = system: rabbits; details: in rabbits
[4] = system: mice; details: in mice
[5] = system: rats; details: in rats; remark: listed apart in the source
[6] = system: powdery mildew and rust; details: in experiments
[7] = system: quails; details: in quails

| Compound | Solubility in acetone [1] [%] | Solubility in dimethylsulfoxide [1] [%] | Solubility in ethyl alcohol [1] [%] | Solubility in gasoline [1] [%] | Solubility in methyl alcohol [1] [%] | Solubility in water [1] [%] | oral LD50 [2] [mg/kg] | skin-resorptive LD50 [3] | oral LD50 [4] [mg/kg] | skin-resorbtive toxicity [5] | Protective systemic action against powdery mildew and rust [6] [days] | oral LD50 [7] [mg/kg] |
| --- | --- | --- | --- | --- | --- | --- | --- | --- | --- | --- | --- | --- |
| CC1=C(C(=O)Nc2ccccc2)SCCO1 [Carboxin, 5,6-dihydro-2-methyl-1,4-oxathiin-3-carboxanyl] | 60 | 150 | 21 | 15 | 21 | 0.017 | 3800 | above 8 g/kg | – | – | – | – |
| CC(C)(C)C(O)(CCc1ccc(Cl)cc1)Cn1cncn1 (stereo not shown) [Tebuconazol, RS-1-(4-chlorophenyl)-4,4-dimethyl-3-(1H-1,2,4-triazol-1-ilmethyl) pentan-3-ol] | – | – | – | – | – | – | 3900 to 5000 | – | 1600 to 3900 | above 5 g/kg | – | – |
| CC(C)(C)C(O)C(Oc1ccc(Cl)cc1)n1cncn1 (stereo not shown) [Triadimenol] | – | – | – | – | – | – | 700 to 1500 | – | 1300 | above 5 g/kg | 4 to 8 | 10000 |
